Measurements reported in patent US12077503B2, “Substituted cyclic amides and their use as herbicides” (FMC CORPORATION, priority 2015, dated 2024).

What was measured:
Type in all cases: in vivo
[1] = test system: redroot pigweed (Amaranthus retroflexus); assay: Test G Post-Emergence Protocol; details: Amaranthus retroflexus, post-emergence, 312 h, read-out: Pigweed, Redroot damage rating; for pest or weed control at 15.625 g/ha: 15.625 g ai/ha, evaluated after 13 days (100=total damage to plant; 0=no damage to plant); for pest or weed control at 62.5 g/ha: 62.5 g ai/ha; for pest or weed control at 62.5 g/ha / pest or weed control at 250 g/ha: evaluated after 13 days, 100=total damage to plant, 0=no damage to plant; for pest or weed control at 250 g/ha: 250 g ai/ha
Method in brief: (§1)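 Values are percent visual injury at 13 days after treatment (0 none, 100 total). Treatment was a post-emergence spray at 15.625, 62.5 or 250 g/ha on 8-day-old pot plants kept at 24/16 °C.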

[2] = test system: corn (Zea mays); assay: Test G Post-Emergence Protocol; details: Zea mays, post-emergence, 312 h, read-out: Corn damage rating; for plant injury at 15.625 g/ha: 15.625 g ai/ha, evaluated after 13 days (100=total damage to plant; 0=no damage to plant); for plant injury at 62.5 g/ha: 62.5 g ai/ha; for plant injury at 62.5 g/ha / plant injury at 250 g/ha: evaluated after 13 days, 100=total damage to plant, 0=no damage to plant; for plant injury at 250 g/ha: 250 g ai/ha
Method in brief: as §1

[3] = test system: barnyardgrass (Echinochloa crus-galli); assay: Test G Post-Emergence Protocol; details: Echinochloa crus-galli, post-emergence, 312 h, read-out: Barnyardgrass damage rating; for pest or weed control at 15.625 g/ha: 15.625 g ai/ha, evaluated after 13 days (100=total damage to plant; 0=no damage to plant); for pest or weed control at 62.5 g/ha: 62.5 g ai/ha; for pest or weed control at 62.5 g/ha / pest or weed control at 250 g/ha: evaluated after 13 days, 100=total damage to plant, 0=no damage to plant; for pest or weed control at 250 g/ha: 250 g ai/ha
Method in brief: as §1

[4] = test system: velvetleaf (Abutilon theophrasti); assay: Test G Post-Emergence Protocol; details: Abutilon theophrasti, post-emergence, 312 h, read-out: Velvetleaf damage rating; for pest or weed control at 15.625 g/ha: 15.625 g ai/ha, evaluated after 13 days (100=total damage to plant; 0=no damage to plant); for pest or weed control at 62.5 g/ha: 62.5 g ai/ha; for pest or weed control at 62.5 g/ha / pest or weed control at 250 g/ha: evaluated after 13 days, 100=total damage to plant, 0=no damage to plant; for pest or weed control at 250 g/ha: 250 g ai/ha
Method in brief: as §1

[5] = test system: giant foxtail (Setaria faberi); assay: Test G Post-Emergence Protocol; details: Setaria faberi, post-emergence, 312 h, read-out: Foxtail, Giant damage rating; for pest or weed control at 15.625 g/ha: 15.625 g ai/ha, evaluated after 13 days (100=total damage to plant; 0=no damage to plant); for pest or weed control at 62.5 g/ha: 62.5 g ai/ha; for pest or weed control at 62.5 g/ha / pest or weed control at 250 g/ha: evaluated after 13 days, 100=total damage to plant, 0=no damage to plant; for pest or weed control at 250 g/ha: 250 g ai/ha
Method in brief: as §1

[6] = test system: ivy-leaved morning glory (Ipomoea hederacea); assay: Test G Post-Emergence Protocol; details: Ipomoea, post-emergence, 312 h, read-out: Morningglory, Ivy-leaved damage rating; for pest or weed control at 15.625 g/ha: 15.625 g ai/ha, evaluated after 13 days (100=total damage to plant; 0=no damage to plant); for pest or weed control at 62.5 g/ha: 62.5 g ai/ha; for pest or weed control at 62.5 g/ha / pest or weed control at 250 g/ha: evaluated after 13 days, 100=total damage to plant, 0=no damage to plant; for pest or weed control at 250 g/ha: 250 g ai/ha
Method in brief: as §1

[7] = test system: redroot pigweed (Amaranthus retroflexus); assay: Test G Pre-Emergence Protocol; details: Amaranthus retroflexus, pre-emergence, 312 h, evaluated after 13 days; for pest or weed control at 15.625 g/ha: 15.625 g ai/ha; for pest or weed control at 15.625 g/ha / pest or weed control at 250 g/ha: read-out: Pigweed, Redroot damage rating (100=total damage to plant; 0=no damage to plant); for pest or weed control at 62.5 g/ha: 62.5 g ai/ha, 100=total damage to plant, 0=no damage to plant, read-out: Pigweed, Redroot damage rating; for pest or weed control at 250 g/ha: 250 g ai/ha
Method in brief: (§2)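 Pots of seeds in standard soil were grown for one day in a glasshouse (24/16 °C day/night, 14 h light, 65% humidity), then sprayed with compound in acetone/water 50:50 with 0.5% Tween 20 at 15.625, 62.5 or 250 g/ha. Damage was scored after 13 days on a 0 (none) to 100 (total) scale.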

[8] = test system: corn (Zea mays); assay: Test G Pre-Emergence Protocol; details: Zea mays, pre-emergence, 312 h, evaluated after 13 days; for plant injury at 15.625 g/ha: 15.625 g ai/ha; for plant injury at 15.625 g/ha / plant injury at 250 g/ha: read-out: Corn damage rating (100=total damage to plant; 0=no damage to plant); for plant injury at 62.5 g/ha: 62.5 g ai/ha, 100=total damage to plant, 0=no damage to plant, read-out: Corn damage rating; for plant injury at 250 g/ha: 250 g ai/ha
Method in brief: as §2

[9] = test system: barnyardgrass (Echinochloa crus-galli); assay: Test G Pre-Emergence Protocol; details: Echinochloa crus-galli, pre-emergence, 312 h, evaluated after 13 days; for pest or weed control at 15.625 g/ha: 15.625 g ai/ha; for pest or weed control at 15.625 g/ha / pest or weed control at 250 g/ha: read-out: Barnyardgrass damage rating (100=total damage to plant; 0=no damage to plant); for pest or weed control at 62.5 g/ha: 62.5 g ai/ha, 100=total damage to plant, 0=no damage to plant, read-out: Barnyardgrass damage rating; for pest or weed control at 250 g/ha: 250 g ai/ha
Method in brief: as §2

[10] = test system: velvetleaf (Abutilon theophrasti); assay: Test G Pre-Emergence Protocol; details: Abutilon theophrasti, pre-emergence, 312 h, evaluated after 13 days; for pest or weed control at 15.625 g/ha: 15.625 g ai/ha; for pest or weed control at 15.625 g/ha / pest or weed control at 250 g/ha: read-out: Velvetleaf damage rating (100=total damage to plant; 0=no damage to plant); for pest or weed control at 62.5 g/ha: 62.5 g ai/ha, 100=total damage to plant, 0=no damage to plant, read-out: Velvetleaf damage rating; for pest or weed control at 250 g/ha: 250 g ai/ha
Method in brief: as §2

[11] = test system: giant foxtail (Setaria faberi); assay: Test G Pre-Emergence Protocol; details: Setaria faberi, pre-emergence, 312 h, evaluated after 13 days; for pest or weed control at 15.625 g/ha: 15.625 g ai/ha; for pest or weed control at 15.625 g/ha / pest or weed control at 250 g/ha: read-out: Foxtail, Giant damage rating (100=total damage to plant; 0=no damage to plant); for pest or weed control at 62.5 g/ha: 62.5 g ai/ha, 100=total damage to plant, 0=no damage to plant, read-out: Foxtail, Giant damage rating; for pest or weed control at 250 g/ha: 250 g ai/ha
Method in brief: as §2

[12] = test system: ivy-leaved morning glory (Ipomoea hederacea); assay: Test G Pre-Emergence Protocol; details: Ipomoea, pre-emergence, 312 h, evaluated after 13 days; for pest or weed control at 15.625 g/ha: 15.625 g ai/ha; for pest or weed control at 15.625 g/ha / pest or weed control at 250 g/ha: read-out: Morningglory, Ivy-leaved damage rating (100=total damage to plant; 0=no damage to plant); for pest or weed control at 62.5 g/ha: 62.5 g ai/ha, 100=total damage to plant, 0=no damage to plant, read-out: Morningglory, Ivy-leaved damage rating; for pest or weed control at 250 g/ha: 250 g ai/ha
Method in brief: as §2

| SMILES | pest or weed control at 15.625 g/ha [1] [%] | pest or weed control at 62.5 g/ha [1] [%] | pest or weed control at 250 g/ha [1] [%] | plant injury at 15.625 g/ha [2] [%] | plant injury at 62.5 g/ha [2] [%] | plant injury at 250 g/ha [2] [%] | pest or weed control at 15.625 g/ha [3] [%] | pest or weed control at 62.5 g/ha [3] [%] | pest or weed control at 250 g/ha [3] [%] | pest or weed control at 15.625 g/ha [4] [%] | pest or weed control at 62.5 g/ha [4] [%] | pest or weed control at 250 g/ha [4] [%] | pest or weed control at 15.625 g/ha [5] [%] | pest or weed control at 62.5 g/ha [5] [%] | pest or weed control at 250 g/ha [5] [%] | pest or weed control at 15.625 g/ha [6] [%] | pest or weed control at 62.5 g/ha [6] [%] | pest or weed control at 250 g/ha [6] [%] | pest or weed control at 15.625 g/ha [7] [%] | pest or weed control at 62.5 g/ha [7] [%] | also measured |
| --- | --- | --- | --- | --- | --- | --- | --- | --- | --- | --- | --- | --- | --- | --- | --- | --- | --- | --- | --- | --- | --- |
| Cc1cc([C@H]2CN(C)C(=O)[C@@H]2C(=O)Nc2ccc(F)c(F)c2F)cnn1 (racemic) [Compound 1663] | 0 | 0 | 0 | 0 | 0 | 0 | 0 | 0 | 0 | 0 | 0 | 0 | 0 | 0 | 0 | 0 | 0 | 0 | 0 | 0 | pest or weed control at 250 g/ha [7]: 0%; plant injury at 15.625 g/ha [8]: 0%; plant injury at 62.5 g/ha [8]: 0%; plant injury at 250 g/ha [8]: 0%; pest or weed control at 15.625 g/ha [9]: 0%; pest or weed control at 62.5 g/ha [9]: 0%; pest or weed control at 250 g/ha [9]: 0%; pest or weed control at 15.625 g/ha [10]: 0%; pest or weed control at 62.5 g/ha [10]: 0%; pest or weed control at 250 g/ha [10]: 0%; pest or weed control at 15.625 g/ha [11]: 0%; pest or weed control at 62.5 g/ha [11]: 0%; pest or weed control at 250 g/ha [11]: 0%; pest or weed control at 15.625 g/ha [12]: 0%; pest or weed control at 62.5 g/ha [12]: 0%; pest or weed control at 250 g/ha [12]: 0% |
| CN1C[C@H](c2cccc(Cl)c2)[C@@H](C(=O)Nc2cnccc2C(F)(F)F)C1=O (racemic) [Compound 1772] | 0 | 0 | 10 | 0 | 0 | 60 | 0 | 0 | 30 | 0 | 0 | 30 | 10 | 60 | 80 | 0 | 30 | 50 | 0 | 0 | pest or weed control at 250 g/ha [7]: 10%; plant injury at 15.625 g/ha [8]: 0%; plant injury at 62.5 g/ha [8]: 0%; plant injury at 250 g/ha [8]: 60%; pest or weed control at 15.625 g/ha [9]: 0%; pest or weed control at 62.5 g/ha [9]: 10%; pest or weed control at 250 g/ha [9]: 80%; pest or weed control at 15.625 g/ha [10]: 0%; pest or weed control at 62.5 g/ha [10]: 0%; pest or weed control at 250 g/ha [10]: 40%; pest or weed control at 15.625 g/ha [11]: 30%; pest or weed control at 62.5 g/ha [11]: 80%; pest or weed control at 250 g/ha [11]: 90%; pest or weed control at 15.625 g/ha [12]: 0%; pest or weed control at 62.5 g/ha [12]: 0%; pest or weed control at 250 g/ha [12]: 60% |
